Source: US11737991B2, “Eutectic formulations of cyclobenzaprine hydrochloride and amitriptyline hydrochloride” (TONIX PHARMA HOLDINGS LIMITED, priority 2013, dated 2023)
“Also recorded” adds a separate entry of the source. Where a name gives a salt, the structure may show the parent alone.

Assays:
Type in all cases: physicochemical
[1] = Dissolution test, USP paddle, pyrophosphate buffer pH 4.5; settings: pH 4.5, free base still present and does not go into solution
Experimental: To test the dissolution properties of the 6 mannitol eutectic, dissolution tests were carried out with a Copley DIS 6000 instrument under the following conditions: Apparatus: USP Paddle RPM: 50 Medium: Pyrophosphate buffer 0.5% pH=4.5±0.05 Additive: Methocel 0.3% Vessel volume: 300 mL Temperature: 37±0.5° C. Sampling time: 1, 2, 5, 10, 20, 30, and 60 min, then each hour until 6 hours. The sampling solutions were diluted 1 to 50 mL and then 1 to 50 mL with medium and submitted to UV analysis with UV ([…]) under the following conditions: λ max: 224 nm Cuvette: […] Blank: medium

[2] = DSC, FT-IR/ATR and XRPD compatibility of excipients with Cyclobenzaprine HCl, mixed (A) and milled (B) 1:1 mixtures (Example 2); settings: for Type of interaction between excipient and API (summary): 1:1 mixtures, mixed and milled
Experimental: As described above, thermal analytical techniques were further used to assess the compatibility of a drug product (tablet) containing Cyclobenzaprine HCl (API). The compatibility assessment was carried out between the API and additional excipients in a 1:1 ratio. The 1:1 APT-excipient mixtures were formed in two different ways: first, by mixing only, and second, by strong milling in an agate mortar. The thermal behavior recorded in the two different mixtures were compared with those of the single components. On the basis of thermal events recorded for each component and for the mixtures, the analyses were carried out by investigating the meanings of the peaks recorded by differential scanning calorimetry (DSC) in mixtures between the API and the excipients. Furthermore, in order to define the nature of the interaction, the Fourier Transform Infra Red Spectroscopy with Total Attenuated Reflectance (FT-IR/ATR) and X-ray powder diffraction (XRPD) of some samples (API, excipient, and mixed and milled mixtures) was carried out and compared.
Aliquots of API and each excipient were weighed in a ratio of 1:1 and ground in an agate mortar. Then, the homogeneous mixtures were analyzed. These sample mixtures were labeled “B”, while the mechanical-only mixtures were labeled “A.”
The DSC heating curves were obtained by TA 821 DSC Mettler instrument under the following conditions:
(§1) Ambient: Nitrogen 30 mL/min
(§2) Sample holder: normal open aluminum pan
(§3) Temperature range: from 25° C. to 250° C.
(§4) Instrument calibration: Indium sample purity 99.999%
The FT-IR spectra were collected with a Perkin Elmer spectrum Two instrument with air as background and 4 cm-1 resolution.
X-ray powder diffraction (XRPD) tests were performed with the ULTIMA IV instrument (Rigaku), laying the sample on a static sample holder. The X-ray focusing slit has a variable width, interlocked with the q value. The X-ray tube has a Copper target, with a current intensity of 40 mA and a voltage of 40 kV. Radiation was generated by the Cockcroft-Walton method, and was constituted by Kα1 (1.540562 Å) and Kα2 (1.544398 Å). The analytical conditions were:
Fixed Time; sampling width 0.02 deg, scanning rate 1.3 s/step, 2 q range 3.35 deg and sample holder; amorphous glass equiangular 9200/2G, 0.2 mm deep. The sample was pressed with a glass plate.

[3] = XRPD of binary Cyclobenzaprine HCl-mannitol mixtures (Example 3); settings: binary mixtures 30-90% API, no thermal treatment
Experimental: In order to confirm the eutectic formation and to characterize its physical properties, several binary mixtures at different ratios of API-excipient were prepared and analyzed by DSC and by X-ray powder diffraction (XRPD). The mixtures were obtained by gently milling in agate mortar of micronized Cyclobenzaprine HCl and mannitol, in order to obtain homogeneous distribution of the particles. For each DSC heating curve, the onset temperature and the enthalpy were evaluated both for the eutectic contribute and for the excess of component. The recorded values were plotted and a phase diagram between the two components was obtained with a characteristic profile of phase diagrams of eutectic mixtures. Mixtures also were investigated by XRPD and compared with the patterns of pure components. […] Aliquots of Cyclobenzaprine HCl API and Mannitol were weighed in the ratios described below and ground in an agate mortar, and the homogeneous mixtures subsequently analyzed. X-ray powder diffraction (XRPD) tests were performed with a ULTIMA IV (Rigaku) instrument, laying the sample on a static sample holder. […] The radiation generated by the Cockcroft-Walton method is constituted by Kα1 (1.540562 Å) and Kα2 (1.544398 Å). The analytical conditions were as follows: Fixed Time: Sampling width, 0.02 deg; Scanning rate, 1.0 s/step […] Sample holder: amorphous glass—equiangular 9200/2G, 0.2 mm deep. […]

[4] = DSC compatibility of excipients with Cyclobenzaprine HCl (Example 1); settings: for Excipient reactions with API, Mixture 1:1: 1:1 API:excipient, ground in agate mortar
Experimental: Thermal analytical techniques were used to assess the compatibility of a drug product (tablet) containing Cyclobenzaprine HCl (API). The compatibility assessment was carried out between the API and a number of possible excipients in a 1:1 ratio. Based on the thermal events recorded for each component and for the mixtures, the analyses were carried out by investigating the peaks recorded by differential scanning calorimetry (DSC) in mixture between API and the excipients. Differences in thermal profiles between the single compound and the related mixture obtained after milling the products in an agate mortar were evaluated. Stability and compatibility also were also assessed on the final drug product after stress conditions at 40° C. and 50° C. for one month.
A “formulation ratio” mixture was made with the following composition: 2.40 mg Cyclobenzaprine HCl, 31.55 mg Mannitol and Maize starch, 2.00 Crospovidone, 0.50 mg colloidal silica, 0.050 mg Sodium Stearyl Fumarate, and 1.05 Potassium hydrogen phosphate.
Aliquots of API and each excipient were weighed in a ratio of 1:1 (unless specified otherwise) and ground in an agate mortar. The homogeneous mixtures then were analyzed.
The DSC heating curves were obtained with a TA 821 DSC Mettler instrument under the following conditions:
as §1, §2, §3, §4

[5] = DSC compatibility of excipients with Amitriptyline HCl (Example 4); settings: Amitriptyline HCl:excipient 1:1, milled in agate mortar
Experimental: Thermal analytical techniques were used to assess the compatibility of the drug product Amitriptyline HCl. The compatibility assessment was carried out between the API and the excipients in a 1:1 ratio. On the basis of thermal events recorded for each component and for the mixtures, the analyses were carried out by investigating the peaks recorded by DSC in mixtures between API and the excipients. Differences in thermal profiles between the single compound and the related mixtures were obtained after milling the products in an agate mortar.

[6] = listed as Potassium phosphate bibasic
[7] = listed as Sodium Stearyl fumarate, fumarate

## CN(C)CCC=C1c2ccccc2C=Cc2ccccc21 [Cyclobenzaprine HCl, 3-(5H-dibenzo[a,d]cyclohepten-5-ylidene)-N,N-dimethyl-1-propanamine]
[1]
  Cyclobenzaprine dissolution: < 100%

## OC[C@@H](O)[C@@H](O)[C@H](O)[C@H](O)CO [Mannitol]
[2]
  Type of interaction between excipient and API (summary): formation of a eutectic
[3]
  Interaction between API and mannitol by XRPD: no adduct formation, only a physical eutectic formation; also recorded: no adduct interaction occurred

## O=P([O-])([O-])O.[K+].[K+] [Potassium phosphate dibasic, dipotassium hydrogen phosphate]
[4]
  Excipient reactions with API, Mixture 1:1: Acid - base interaction
  Excipient reactions with API, Mixture in formulation ratio: Low chemical
[4]; [6]
  Excipient reactions with API, Mixture 1:1: chemical interaction (acid-base); also recorded: chemical (acid-base) interaction
  Excipient reactions with API, Mixture in formulation ratio: chemical (acid-base) interaction
[4]; listed as K2HPO4
  Excipient reactions with API, Mixture in formulation ratio: small interaction

## CCCCCCCCCCCCCCCCCCOC(=O)/C=C/C(=O)[O-].[Na+] [Sodium stearyl fumarate]
[4]; fumarate
  Excipient reactions with API, Mixture 1:1: Physical interaction
  Excipient reactions with API, Mixture in formulation ratio: No interaction
[4]; [7]
  Excipient reactions with API, Mixture 1:1: small physical interaction
  Excipient reactions with API, Mixture in formulation ratio: this incompatibility disappears

## OC[C@@H](O)[C@@H](O)[C@H](O)[C@@H](O)CO [Sorbitol]
[2]
  Type of interaction between excipient and API (summary): physical interaction

## O=C([O-])CC(O)(CC(=O)[O-])C(=O)[O-].[Na+].[Na+].[Na+] [Tri Sodium Citrate anhydrous, Trisodium citrate anhydrous]
[2]; 1:1 mixture, room temperature, no thermal treatment
  Nature of interaction by FT-IR/ATR: no chemical acid-base reaction had occurred
[2]
  Type of interaction between excipient and API (summary): only physical

## Sodium Phosphate dodecahydrate
[5]
  Interactions between API and excipients, Mixture in formulation (1:1 ratio): physical interaction
